# In paper PMC6465675, “Design, Synthesis, Antiviral Evaluation, and SAR Studies of New 1-(Phenylsulfonyl)-1H-Pyrazol−4-yl-Methylaniline Derivatives” (Frontiers in Chemistry, 2019):
# Columns and labels:
# in vitro [1] = conditions: Bos taurus (cattle)
# Sb-1 = test: microbe, parasite or virus in culture; format: cell-based, Poliovirus type-1, Sabin strain; conditions: Enterovirus C, Vero 76, read-out: Sb-1 EC50
# VV = test: microbe, parasite or virus in culture; format: cell-based; conditions: Orthopoxvirus vaccinia, Vero 76, read-out: VV EC50
# HSV-1 = test: microbe, parasite or virus in culture; format: cell-based, human herpesvirus 1; conditions: Human alphaherpesvirus 1, Vero 76, read-out: HSV-1 EC50
# in vitro [2] = conditions: Mesocricetus auratus (hamster)
# YFV [3] = test: microbe, parasite or virus in culture; conditions: Yellow fever virus, BHK, read-out: YFV EC50
# YFV [4] = system: YFV
# CVB-5 = test: microbe, parasite or virus in culture; format: cell-based, Coxsackievirus B5; conditions: Enterovirus B, Vero 76, read-out: CVB-5 EC50
# VSV = test: microbe, parasite or virus in culture; format: cell-based; conditions: Vesicular stomatitis virus, Vero 76, read-out: VSV EC50
# in vitro [5] = conditions: human
# RSV [6] = system: RSV
# RSV [7] = test: microbe, parasite or virus in culture; conditions: human respiratory syncytial virus, Vero 76, read-out: RSV EC50
# in vitro [8] = conditions: Cercopithecus aethiops (monkey), Vero76 CC50
# BVDV [9] = system: BVDV
# BVDV [10] = test: microbe, parasite or virus in culture; conditions: Bovine viral diarrhea virus isolates and strains, MDBK, read-out: BVDV EC50
Compound,CC50 (in vitro [1]) [µM],EC50 (Sb-1) [µM],EC50 (VV) [µM],EC50 (HSV-1) [µM],CC50 (in vitro [2]) [µM],melting point [°C],EC50 (YFV [3]) [µM],SI CC50/EC50 (YFV) (YFV [4]),EC50 (CVB-5) [µM],EC50 (VSV) [µM],CC50 (in vitro [5]) [µM],SI CC50/EC50 (RSV) (RSV [6]),EC50 (RSV [7]) [µM],CC50 (in vitro [8]) [µM],SI CC50/EC50 (BVDV) (BVDV [9]),EC50 (BVDV [10]) [µM]
"O=S(=O)(c1ccccc1)n1cc(CNc2ccc(Cl)cc2)c(-c2ccccc2)n1 [7b, 4-Chloro-N-[(3-phenyl-1-(phenylsulphonyl)-1H-pyrazol-4-yl)methyl]aniline]",> 100,> 80,> 80,> 80,> 100,136 to 137,8.1 ± 1.3,>12.3,20 ± 5,> 80,> 100,–,–,–,–,–
"O=S(=O)(c1ccccc1)n1cc(CNc2ccc(Cl)cc2)c(-c2ccc(Br)cc2)n1 [7f, 4-Chloro-N-[(3-(4-bromophenyl)-1-(phenysulfonyl)-1H-pyrazol-4-yl)methyl]aniline]",> 100,> 90,> 90,> 90,> 100,137 to 138,4 ± 0.7,>25.0,> 90,> 90,> 100,5.9,15.3 ± 2.5,90 ± 2,–,–
"O=S(=O)(c1ccccc1)n1cc(CNc2ccc(Br)cc2)c(-c2ccc(Br)cc2)n1 [7g, 4-Bromo-N-[(3-(4-bromophenyl)-1-(phenylsulfonyl)-1H-pyrazol-4-yl)methyl]aniline]",> 100,> 90,> 90,> 90,> 100,150 to 151,6.2 ± 0.5,>16.1,> 90,> 90,> 100,5.7,15.8 ± 2,90 ± 1,–,–
"Cc1ccc(NCc2cn(S(=O)(=O)c3ccccc3)nc2-c2ccc(Br)cc2)cc1 [7h, 4-Methyl-N-[(3-(4-bromophenyl)-1-(phenylsulfonyl)-1H-pyrazol-4-yl)methyl]aniline]",> 100,> 93,> 93,> 93,> 100,112,4.9 ± 0.9,>20.4,> 93,> 93,> 100,7.4,12.5 ± 2.5,93 ± 0.5,–,–
"O=S(=O)(c1ccccc1)n1cc(CNc2ccc(Cl)cc2)c(-c2ccc(Cl)cc2)n1 [7j, 4-Cloro-N-[(3-(4-chlorophenyl)-1-(phenylsulfonyl)-1H-pyrazol-4-yl)methyl]aniline]",> 100,–,–,–,> 100,142 to 143,4.4 ± 0.4,>22.7,–,–,> 100,>11.8,8.5 ± 0.5,> 100,>2.3,43.3 ± 1.1
"COc1ccc(S(=O)(=O)n2cc(CNc3ccc(Br)cc3)c(-c3ccc(Cl)cc3)n2)cc1 [8g, 4-Bromo-N-[(3-(4-chlorophenyl)-1-((4-methoxyphenyl)sulfonyl)-1H-pyrazol-4-yl)methyl]aniline]",> 100,–,–,–,> 100,169 to 171,18.6 ± 0.8,>5.4,–,–,> 100,–,–,> 100,>8.1,12.4 ± 0.8
"Nc1nc2c(ncn2COCCO)c(=O)[nH]1 [ACG, Acyclovir, reference compound]",–,–,–,2.9 ± 0.1,–,–,–,–,–,–,–,–,–,> 100,–,–
"COc1c(C)c2c(c(O)c1C/C=C(\C)CCC(=O)O)C(=O)OC2 [M 5255, Mycophenolic acid, reference compound]",–,–,2 ± 0.1,–,–,–,–,–,–,–,–,–,–,20 ± 0.3,–,–
"Cc1cc(CCCOc2c(C)cc(-c3noc(C(F)(F)F)n3)cc2C)on1 [Pleconaril, reference compound]",–,2 ± 0.1,–,–,–,–,–,–,0.0025 ± 0.0005,–,–,–,–,70 ± 1,–,–
"NC(=O)c1ncn([C@@H]2O[C@H](CO)[C@@H](O)[C@H]2O)n1 [Ribavirin, reference compound]",55 ± 7,–,–,–,–,–,–,–,–,–,–,>2.7,37.5 ± 2.5,> 100,3.4,16 ± 2
